Assay [1] has as its system M. tuberculosis inside the host macrophage. Description: QIM: Quantification of Intracellular Mycobacteria (intracellular growth assay, phenotypic cell-based). Conditions: Mycobacterium tuberculosis; MIC, 80% bacterial growth inhibition; intracellular growth; read-out: QIM. From the text:
Accordingly, a phenotypic cell-based assay, suitable for high throughput screening, which allows for the search of compounds that would prevent M. tuberculosis multiplication inside the host macrophage was utilized (WO2010003533A2), overcoming many of the numerous and burdensome steps involved in previous methodologies (Arain et al., 1996).
A 120,000 small molecule compound library was screened using a validated phenotypic cell-based assay (WO2010003533A2). Active compounds from the primary screen were confirmed via dose response in the intracellular (QIM) assay and an in vitro (QUM) assay, wherein the abbreviation “QIM” stands for Quantification of Intracellular Mycobacteria and the abbreviation “QUM” stands for Quantification of in vitro grown Mycobacteria. […] The MIC is the minimum concentration of compound required to obtain 80% bacterial growth inhibition.
The imidazopyridine compounds (scaffolds Ia and Ib; see Table 1) underwent derivatization according to the methods outlined below (Schemes 1-13). Resulting derivatives were examined for inhibitory activity (MIC) using the assays described above (Example 1) and the results are summarized in Table 1.

Assay [2] deals with in vitro grown Mycobacteria (M. tuberculosis). Kind of assay: QUM: Quantification of in vitro grown Mycobacteria (in vitro growth fluorescence assay). It is filed as cell-based. Conditions: Mycobacterium tuberculosis; MIC, 80% bacterial growth inhibition; in vitro growth; read-out: QUM. The essentials:
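Mycobacterium tuberculosis grown in vitro was quantified by fluorescence across compound dose responses. MIC is defined as the minimum concentration producing 80% growth inhibition.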

In brackets after ≈: the same amount, converted by molar mass.

`CCc1nc2ccc(Cl)cn2c1C(=O)NCc1ccc(N2CCOCC2)cc1` [Compound 74]: the MIC in assay [1] and in assay [2] was < 1 µM in each case.

Regarding `CCc1nc2ccc(Cl)cn2c1C(=O)NCc1ccc(OC(C)C)cc1` [Compound 75], the MIC in assay [1] and in assay [2] was < 1 µM throughout.

As for `CCc1nc2ccc(Cl)cn2c1C(=O)NCc1ccc(OCC(C)C)cc1` [Compound 76], the MIC in assay [1] and in assay [2] was < 1 µM in each case.

Take `CCc1nc2ccc(Cl)cn2c1C(=O)NCc1ccc(N2CCCCC2)cc1` [Compound 79, 6-Chloro-2-ethyl-N-(4-(piperidin-1-yl)benzyl)imidazo[1,2-a]pyridine-3-carboxamide]: the MIC in assay [1] and in assay [2] was < 1 µM each time.

For `CCc1nc2ccc(Cl)cn2c1C(=O)NCc1ccc2ccccc2c1` [Compound 80, 6-Chloro-2-ethyl-N-(naphthalen-2-ylmethyl)imidazo[1,2-a]pyridine-3-carboxamide], the MIC in assay [1] and in assay [2] was < 1 µM in each case.

As for `CCc1nc2ccc(Cl)cn2c1C(=O)NCc1ccc(-c2ccccc2Cl)cc1` [Compound 82, 6-Chloro-N-((2′-chlorobiphenyl-4-yl)methyl)-2-ethylimidazo[1,2-a]pyridine-3-carboxamide], the MIC in assay [1] and in assay [2] was < 1 µM each time.

Regarding `CCc1nc2ccc(Cl)cn2c1C(=O)NCc1ccc(-c2ccc(Cl)cc2)cc1` [Compound 83, 6-Chloro-N-((4′-chlorobiphenyl-4-yl)methyl)-2-ethylimidazo[1,2-a]pyridine-3-carboxamide], the MIC in assay [1] and in assay [2] was < 1 µM in each case.

Turning to `CCc1nc2ccc(Cl)cn2c1C(=O)NCc1ccc(-c2ccccc2C)cc1` [Compound 84, 6-Chloro-2-ethyl-N-((2′-methylbiphenyl-4-yl)methyl)imidazo[1,2-a]pyridine-3-carboxamide], the MIC in assay [1] and in assay [2] was < 1 µM in each case.

With `CCc1nc2ccc(Cl)cn2c1C(=O)NCc1ccc(-c2cccc(C)c2)cc1` [Compound 85, 6-Chloro-2-ethyl-N-((3′-methylbiphenyl-4-yl)methyl)imidazo[1,2-a]pyridine-3-carboxamide], the MIC in assay [1] and in assay [2] was < 1 µM each time.

Consider `CCc1nc2ccc(Cl)cn2c1C(=O)NCc1ccc(-c2ccc(C)cc2)cc1` [Compound 86, 6-Chloro-2-ethyl-N-((4′-methylbiphenyl-4-yl)methyl)imidazo[1,2-a]pyridine-3-carboxamide], for which the MIC in assay [1] and in assay [2] was < 1 µM throughout.

As for `CCc1nc2cc(Cl)ccn2c1C(=O)NCc1ccc(Cl)cc1` [Compound 87, 7-Chloro-N-(4-chlorobenzyl)-2-ethylimidazo[1,2-a]pyridine-3-carboxamide], the MIC in assay [1] and in assay [2] was < 1 µM each time.

Take `CCc1nc2cc(Cl)ccn2c1C(=O)NCc1ccc(O)cc1` [Compound 88, 7-Chloro-2-ethyl-N-(4-hydroxybenzyl)imidazo[1,2-a]pyridine-3-carboxamide]: the MIC in assay [1] and in assay [2] was 1 to 20 µM (≈ 0.33 to 6.6 µg/mL) throughout.

Consider `CCc1nc2cc(Cl)ccn2c1C(=O)NCc1ccc(N2CCCCC2)cc1` [Compound 90, 7-Chloro-2-ethyl-N-(4-(piperidin-1-yl)benzyl)imidazo[1,2-a]pyridine-3-carboxamide], for which the MIC in assay [1] and in assay [2] was < 1 µM throughout.

On to `CCc1nc2cc(Cl)ccn2c1C(=O)NCc1ccc2ccccc2c1` [Compound 91, 7-Chloro-2-ethyl-N-(naphthalen-2-ylmethyl)imidazo[1,2-a]pyridine-3-carboxamide], for which the MIC in assay [1] is 1 to 20 µM (≈ 0.364 to 7.28 µg/mL); in assay [2], < 1 µM.

With `CCc1nc2cc(Cl)ccn2c1C(=O)NCc1ccc(C(C)(C)C)cc1` [Compound 92, N-(4-tert-Butylbenzyl)-7-chloro-2-ethylimidazo[1,2-a]pyridine-3-carboxamide], the MIC in assay [1] and in assay [2] was < 1 µM throughout.

As for `CCc1nc2cc(Cl)ccn2c1C(=O)NCc1ccc(-c2ccccc2)cc1` [Compound 93], the MIC in assay [1] and in assay [2] was < 1 µM each time.

In the case of `CCc1nc2cc(Cl)ccn2c1C(=O)NCc1ccc(-c2ccccc2Cl)cc1` [Compound 94, 7-Chloro-N-((2′-chlorobiphenyl-4-yl)methyl)-2-ethylimidazo[1,2-a]pyridine-3-carboxamide], the MIC in assay [1] and in assay [2] was < 1 µM throughout.

For the compound `CCc1nc2cc(Cl)ccn2c1C(=O)NCc1ccc(-c2ccc(Cl)cc2)cc1` [Compound 95, 7-Chloro-N-((4′-chlorobiphenyl-4-yl)methyl)-2-ethylimidazo[1,2-a]pyridine-3-carboxamide], the MIC in assay [1] and in assay [2] was < 1 µM each time.

Take `CCc1nc2cc(Cl)ccn2c1C(=O)NCc1ccc(-c2ccccc2C)cc1` [Compound 96, 7-Chloro-2-ethyl-N-((2′-methylbiphenyl-4-yl)methyl)imidazo[1,2-a]pyridine-3-carboxamide]: the MIC in assay [1] and in assay [2] was < 1 µM in each case.

Turning to `CCc1nc2cc(Cl)ccn2c1C(=O)NCc1ccc(-c2cccc(C)c2)cc1` [Compound 97, 7-Chloro-2-ethyl-N-((3′-methylbiphenyl-4-yl)methyl)imidazo[1,2-a]pyridine-3-carboxamide], the MIC in assay [1] and in assay [2] was < 1 µM each time.

For the compound `CCc1nc2cc(Cl)ccn2c1C(=O)NCc1ccc(-c2ccc(C)cc2)cc1` [Compound 98, 7-Chloro-2-ethyl-N-((4′-methylbiphenyl-4-yl)methyl)imidazo[1,2-a]pyridine-3-carboxamide], the MIC in assay [1] and in assay [2] was < 1 µM each time.

With `O=C(NCc1ccc(-c2ccccc2)cc1)c1c(C(F)(F)F)nc2ccc(Cl)cn12` [Compound 99, N-(Biphenyl-4-ylmethyl)-6-chloro-2-(trifluoromethyl)imidazo[1,2-a]pyridine-3-carboxamide], the MIC in assay [1] and in assay [2] was < 1 µM throughout.

With `CC(C)(C)c1ccc(CNC(=O)c2c(C(F)(F)F)nc3ccc(Cl)cn23)cc1` [Compound 100, N-(4-tert-Butylbenzyl)-6-chloro-2-(trifluoromethyl)imidazo[1,2-a]pyridine-3-carboxamide], the MIC in assay [1] and in assay [2] was < 1 µM in each case.

Turning to `CCc1nc2cc(Cl)ccn2c1C(=O)NCc1ccc(Br)cc1` [Compound 101, N-(4-Bromobenzyl)-7-chloro-2-ethylimidazo[1,2-a]pyridine-3-carboxamide], the MIC is < 1 µM in assay [1] and 1 to 20 µM (≈ 0.393 to 7.85 µg/mL) in assay [2].

As for `CCc1nc2cc(Cl)ccn2c1C(=O)NCc1ccc(OC(F)(F)F)cc1` [Compound 102, 7-Chloro-2-ethyl-N-(4-(trifluoromethoxy)benzyl)imidazo[1,2-a]pyridine-3-carboxamide], the MIC in assay [1] was 1 to 20 µM (≈ 0.398 to 7.96 µg/mL); in assay [2], < 1 µM.

`CCc1nc2ccc(F)cn2c1C(=O)NCc1ccc(OC(F)(F)F)cc1` [Compound 103, 2-Ethyl-6-fluoro-N-(4-(trifluoromethoxy)benzyl)imidazo[1,2-a]pyridine-3-carboxamide]: the MIC was < 1 µM in assay [1] and 1 to 20 µM (≈ 0.381 to 7.63 µg/mL) in assay [2].

`CCc1nc2cc(OC)ccn2c1C(=O)NCc1ccc(OC(F)(F)F)cc1` [Compound 104, 2-Ethyl-7-methoxy-N-(4-(trifluoromethoxy)benzyl)imidazo[1,2-a]pyridine-3-carboxamide]: the MIC in assay [1] is 1 to 20 µM (≈ 0.393 to 7.87 µg/mL); in assay [2], > 20 µM.

For the compound `CCc1nc2cc(O)ccn2c1C(=O)NCc1ccc(OC(F)(F)F)cc1` [Compound 105, 2-Ethyl-7-hydroxy-N-(4-(trifluoromethoxy)benzyl)imidazo[1,2-a]pyridine-3-carboxamide], the MIC in assay [1] and in assay [2] was > 20 µM in each case.

As to `CCCNc1ccc(CNC(=O)c2c(CC)nc3cc(Cl)ccn23)cc1` [Compound 106, 7-Chloro-2-ethyl-N-(4-(propylamino)benzyl)imidazo[1,2-a]pyridine-3-carboxamide], the MIC in assay [1] is 1 to 20 µM (≈ 0.371 to 7.42 µg/mL); in assay [2] it was < 1 µM.

Regarding `CCCCCNc1ccc(CNC(=O)c2c(CC)nc3cc(Cl)ccn23)cc1` [Compound 107, 7-Chloro-2-ethyl-N-(4-(pentylamino)benzyl)imidazo[1,2-a]pyridine-3-carboxamide], the MIC in assay [1] and in assay [2] was < 1 µM throughout.

Regarding `CCc1nc2cc(Cl)ccn2c1C(=O)NCc1ccc(N2CCN(C)CC2)cc1` [Compound 109, 7-Chloro-2-ethyl-N-(4-(4-methylpiperazin-1-yl)benzyl)imidazo[1,2-a]pyridine-3-carboxamide], the MIC in assay [1] and in assay [2] was 1 to 20 µM (≈ 0.412 to 8.24 µg/mL) throughout.

`CCc1nc2cc(Cl)ccn2c1C(=O)NCc1ccc(N2CCN(C(C)C)CC2)cc1` [Compound 110, 7-Chloro-2-ethyl-N-(4-(4-isopropylpiperazin-1-yl)benzyl)imidazo[1,2-a]pyridine-3-carboxamide]: the values for the MIC in assay [1] and in assay [2] were < 1 µM and 1 to 20 µM (≈ 0.44 to 8.8 µg/mL), respectively.

On to `CCc1nc2cc(Cl)ccn2c1C(=O)NCc1ccc(N2CCN(c3ccccc3)CC2)cc1` [Compound 111, 7-Chloro-2-ethyl-N-(4-(4-phenylpiperazin-1-yl)benzyl)imidazo[1,2-a]pyridine-3-carboxamide], for which the MIC in assay [1] and in assay [2] was < 1 µM each time.

Source of the values: patent US8865734B2 (priority 2010, dated 2014).
